Experimental data taken from patent US20140023611A1 (priority 2010, published 2014).

What was measured:
[1] = biological target: T1, human NaP2b (SLC34A2) (Homo sapiens, UniProt O95436); assay: Inhibition of NaP2b-mediated Pi (33P) uptake in transfected HEK293 cells, human NaP2b; format: cell-based; conditions: read-out: pIC50 range for human NaP2b (converted)
T1 construct: host or cells: HEK293
T1 sequence (O95436 1-690): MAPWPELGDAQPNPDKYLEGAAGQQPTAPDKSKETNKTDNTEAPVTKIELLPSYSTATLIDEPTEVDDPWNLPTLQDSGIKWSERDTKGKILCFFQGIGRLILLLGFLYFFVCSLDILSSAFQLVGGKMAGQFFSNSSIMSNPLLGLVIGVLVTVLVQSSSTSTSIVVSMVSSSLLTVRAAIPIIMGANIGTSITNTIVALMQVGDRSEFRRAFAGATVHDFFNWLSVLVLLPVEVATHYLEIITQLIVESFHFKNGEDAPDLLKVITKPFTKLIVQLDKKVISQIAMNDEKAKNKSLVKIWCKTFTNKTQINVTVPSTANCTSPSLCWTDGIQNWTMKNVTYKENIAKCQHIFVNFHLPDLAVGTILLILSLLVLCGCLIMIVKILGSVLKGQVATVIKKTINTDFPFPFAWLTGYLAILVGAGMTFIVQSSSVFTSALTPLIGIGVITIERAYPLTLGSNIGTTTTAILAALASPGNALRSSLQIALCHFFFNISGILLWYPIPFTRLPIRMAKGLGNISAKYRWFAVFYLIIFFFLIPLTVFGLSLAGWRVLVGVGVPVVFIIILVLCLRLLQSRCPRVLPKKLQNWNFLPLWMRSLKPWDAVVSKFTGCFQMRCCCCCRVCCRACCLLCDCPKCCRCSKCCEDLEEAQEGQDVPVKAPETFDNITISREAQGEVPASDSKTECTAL
Method: HEK293 cells were obtained from the American Type Culture collection and propagated per their instructions. Expression clones for rat and human NaP2b (SLC34A2) were obtained from Open Biosystems (Catalog numbers MRN1768-9510282, and MHS1010-99823026, respectively). The sequence of the human protein was mutated to insert a threonine after residue 37, and to introduce a N39D mutation.
The rate of phosphate (Pi) uptake into HEK293 cells was measured using a modification of the method described by Mohrmann et al. (Mohrmann, I., Mohrmann, M., Biber, J., and Murer, H. (1986) Am. J. Phys. 250(3 Pt 1):G323-30.) Transfected HEK293 cells were treated with a pharmacological agent to minimize endogenous PiT-mediated phosphate transport activity, such that the only remaining sodium-dependent phosphate transport activity is that which was bestowed by introduction of the NaP2b genes.
Cells were seeded into 96-well plates at 25,000 cells/well and cultured overnight. Lipofectamine 2000 (Invitrogen) was used to introduce the NaP2b cDNA, and the cells were allowed to approach confluence during a second overnight incubation. […] Cells were then overlayed with either choline uptake buffer or sodium uptake buffer (14 mM Tris, 137 mM sodium chloride, 5.4 mM KCl, 2.8 mM CaCl2, 1.2 mM MgSO4, 100 uM KH2PO4, PiT-silencing agent, 1 mg/mL Bovine Serum Albumin, pH 7.4) containing 6-9 uCi/mL ^33P orthophosphoric acid (Perkin Elmer) and test compound. Each compound was tested at twelve concentrations ranging from 0.1 nM to 30 uM. Assays were run in duplicate.
After incubation for 3-30 minutes at room temperature, assay mixtures were removed, and the cells were washed twice with ice cold stop solution (137 mM sodium chloride, 14 mM Tris, pH 7.4). Cells were lysed by addition of 20 μL 0.1% Tween 80 followed by 100 μL scintillation fluid, and counted using a TopCount (Perkin Elmer).
pIC50 (the negative log of the IC50) values of the test compounds were calculated using GraphPad Prism.

[2] = biological target: T2, rat NaP2b (SLC34A2) (Rattus norvegicus, UniProt Q9JJ09); assay: Inhibition of NaP2b-mediated Pi (33P) uptake in transfected HEK293 cells, rat NaP2b; format: cell-based; conditions: 33P Pi uptake, 0.1 mM phosphate, value given as pIC50 range
T2 construct: host or cells: HEK293
T2 sequence (Q9JJ09 1-695): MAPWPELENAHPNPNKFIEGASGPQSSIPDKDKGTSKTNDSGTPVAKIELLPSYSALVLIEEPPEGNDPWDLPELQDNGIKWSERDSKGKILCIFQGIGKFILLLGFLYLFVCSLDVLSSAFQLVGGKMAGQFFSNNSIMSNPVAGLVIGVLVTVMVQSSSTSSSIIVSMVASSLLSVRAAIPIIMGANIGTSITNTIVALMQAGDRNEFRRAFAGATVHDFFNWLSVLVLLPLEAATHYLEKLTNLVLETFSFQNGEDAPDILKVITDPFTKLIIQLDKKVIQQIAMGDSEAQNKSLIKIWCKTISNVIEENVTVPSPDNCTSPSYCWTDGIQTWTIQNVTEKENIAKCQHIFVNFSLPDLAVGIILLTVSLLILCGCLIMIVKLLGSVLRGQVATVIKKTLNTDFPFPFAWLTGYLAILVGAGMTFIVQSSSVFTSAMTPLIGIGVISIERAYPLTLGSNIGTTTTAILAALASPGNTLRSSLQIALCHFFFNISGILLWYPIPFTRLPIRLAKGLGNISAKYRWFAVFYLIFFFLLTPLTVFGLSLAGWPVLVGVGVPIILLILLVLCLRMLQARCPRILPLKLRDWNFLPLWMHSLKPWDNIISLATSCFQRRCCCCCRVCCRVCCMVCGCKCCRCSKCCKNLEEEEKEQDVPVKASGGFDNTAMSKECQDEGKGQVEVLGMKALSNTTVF
How it was run: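 The cells transiently expressed NaP2b after Lipofectamine transfection. Each compound was run in duplicate over twelve concentrations, 0.1 nM–30 uM.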

IC50 [1]	IC50 [2]	Structure (SMILES)
< 1000 nM	< 1000 nM	CCN(CC)c1ccc(NC(=O)c2cccc(CSCCOCCOCCOCCOCCC(=O)NC(CO)CO)c2)c(-c2cc(C(=O)N[C@H]3CCCc4ccccc43)ccn2)c1 [Example 159, (S)-2-(5-(diethylamino)-2-(3-(20-hydroxy-19-(hydroxymethyl)-17-oxo-5,8,11,14-tetraoxa-2-thia-18-azaicosyl)benzamido)phenyl)-N-(1,2,3,4-tetrahydronaphthalen-1-yl)isonicotinamide]
1000 to 7940 nM	1000 to 7940 nM	CCN(CC)c1ccc(NC(=O)c2cccc(COCCOCCOCCOCCOC(=O)NCCOCCOCCOCCOCCOCCOCCOC)c2)c(-c2cc(C(=O)NCc3cccc(C(F)(F)F)c3)ccn2)c1 [Example 175, 1-(3-(4-(diethylamino)-2-(4-(3-(trifluoromethyl)benzylcarbamoyl)pyridin-2-yl)phenylcarbamoyl)phenyl)-2,5,8,11-tetraoxamidecan-13-yl 2,5,8,11,14,17,20-heptaoxadocosan-22-ylcarbamate]
1000 to 7940 nM	1000 to 7940 nM	CCN(CC)c1ccc(NC(=O)c2cccc(COCCOCCOCCOCCOCCOCCN(CCO)CCO)c2)c(-c2cc(C(=O)NCc3cccc(C(F)(F)F)c3)ccn2)c1 [Example 178, 2-(5-(diethylamino)-2-(3-(22-hydroxy-20-(2-hydroxyethyl)-2,5,8,11,14,17-hexaoxa-20-azadocosyl)benzamido)phenyl)-N-(3-(trifluoromethyl)benzyl)isonicotinamide]
1000 to 7940 nM	1000 to 7940 nM	CCN(CC)c1ccc(NC(=O)c2cccc(COCCOCCOCCOCCOCCOCCN(C)CCN3CCOCC3)c2)c(-c2cc(C(=O)NCc3cccc(C(F)(F)F)c3)ccn2)c1 [Example 179, 2-(5-(diethylamino)-2-(3-(20-methyl-22-morpholino-2,5,8,11,14,17-hexaoxa-20-azadocosyl)benzamido)phenyl)-N-(3-(trifluoromethyl)benzyl)isonicotinamide]
1000 to 7940 nM	1000 to 7940 nM	O=C(O)c1cccc(COc2cccc(C(=O)Nc3ccc(N4CCCCC4)cc3-c3cc(C(=O)NCc4cccc(C(F)(F)F)c4)ccn3)c2)c1 [Example 183, 3-((3-(4-(piperidin-1-yl)-2-(4-(3-(trifluoromethyl)benzylcarbamoyl)pyridin-2-yl)phenylcarbamoyl)phenoxy)methyl)benzoic acid]
< 1000 nM	1000 to 7940 nM	O=C(O)c1cccc(COCc2cccc(C(=O)Nc3ccc(N4CCCCC4)cc3-c3cc(C(=O)NCc4cccc(C(F)(F)F)c4)ccn3)c2)c1 [Example 185, 3-((3-(4-(piperidin-1-yl)-2-(4-(3-(trifluoromethyl)benzylcarbamoyl)pyridin-2-yl)phenylcarbamoyl)benzyloxy)methyl)benzoic acid]
1000 to 7940 nM	< 1000 nM	CN(CCN1CCC[C@H]1C(=O)OC(C)(C)C)C(=O)c1cccc(C(=O)Nc2ccc(N3CCCCC3)cc2-c2cc(C(=O)N[C@H]3CCCc4ccccc43)ccn2)c1 [Example 187, (S)-tert-butyl 1-(2-(N-methyl-3-((4-(piperidin-1-yl)-2-(4-(((S)-1,2,3,4-tetrahydronaphthalen-1-yl)carbamoyl)pyridin-2-yl)phenyl)carbamoyl)benzamido)ethyl)pyrrolidine-2-carboxylate]
< 1000 nM	< 1000 nM	CN(CCN1CCC[C@H]1C(=O)NCCOCCOCCOCCC(=O)OC(C)(C)C)C(=O)c1cccc(C(=O)Nc2ccc(N3CCCCC3)cc2-c2cc(C(=O)N[C@H]3CCCc4ccccc43)ccn2)c1 [Example 192, tert-butyl 1-((S)-1-(2-(N-methyl-3-((4-(piperidin-1-yl)-2-(4-(((S)-1,2,3,4-tetrahydronaphthalen-1-yl)carbamoyl)pyridin-2-yl)phenyl)carbamoyl)benzamido)ethyl)pyrrolidin-2-yl)-1-oxo-5,8,11-trioxa-2-azatetradecan-14-oate]
1000 to 7940 nM	1000 to 7940 nM	CCN(CC)c1ccc(NC(=O)c2cccc(C(=O)N(C)CCN3CCCC[C@H]3C(=O)NCCOCCOCCOCCOCCOCCOCCOCCOC)c2)c(-c2cc(C(=O)NCc3cccc(C(F)(F)F)c3)ccn2)c1 [Example 201, (S)—N^1-(2-(2-(2,5,8,11,14,17,20,23-octaoxapentacosan-25-yl-carbamoyl)piperidin-1-yl)ethyl)-N^3-(4-(diethylamino)-2-(4-((3-(trifluoromethyl)benzyl)carbamoyl)pyridin-2-yl)phenyl)-N^1-methylisophthalamide]
< 1000 nM	< 1000 nM	CCN(CC)c1ccc(NC(=O)c2cccc(C(=O)N(C)CCN3CCN(C(=O)N(C)CCOCCOCCOCCC(=O)OC(C)(C)C)CC3)c2)c(-c2cc(C(=O)N[C@H]3CCCc4ccccc43)ccn2)c1 [Example 212, tert-butyl 3-[2-(2-{2-[(4-{2-[1-(3-{[4-(diethylamino)-2-(4-{[(1S)-1,2,3,4-tetrahydronaphthalen-1-yl]carbamoyl}pyridin-2-yl)phenyl]carbamoyl}phenyl)-N-methylformamido]ethyl}piperazin-1-yl)carbonyl(methyl)amino]ethoxy}ethoxy)ethoxy]propanoate]
1000 to 7940 nM	10000 to 31600 nM	COCCOCCOCCOCCOCCOCCOCCOCC(=O)N1CCCN(CCN(C)C(=O)c2cccc(C(=O)Nc3ccc(N4CCCCC4)cc3-c3cc(C(=O)N[C@H]4CCCc5ccccc54)ccn3)c2)CC1 [Example 213, (S)—N1-(2-(4-2,5,8,11,14,17,20,23-octaoxapentacosane-1,4-diazepan-1-yl)ethyl)-N1-methyl-N3-(4-(piperidin-1-yl)-2-(4-(1,2,3,4-tetrahydronaphthalen-1-ylcarbamoyl)pyridin-2-yl)phenyl)isophthalamide]
1000 to 7940 nM	1000 to 7940 nM	COCCOCCOCCOCCOCCOCCOCCOC(=O)N1CCCN(CCN(C)C(=O)c2cccc(C(=O)Nc3ccc(N4CCCCC4)cc3-c3cc(C(=O)N[C@H]4CCCc5ccccc54)ccn3)c2)CC1 [Example 214, (S)-2,5,8,11,14,17,20-heptaoxadocosan-22-yl 4-(2-(N-methyl-3-(4-(piperidin-1-yl)-2-(4-(1,2,3,4-tetrahydronaphthalen-1-ylcarbamoyl)pyridin-2-yl)phenylcarbamoyl)benzamido)ethyl)-1,4-diazepane-1-carboxylate]
